In the case of `COC(=O)Cc1ccc(-c2cc(O)c3ccccc3c2O)n1C`, the melting point is reported as 200 to 201 °C. For `O=C1C(Cl)=C(N2CCN(S(=O)(=O)c3ccccc3C(F)(F)F)CC2)C(=O)c2ccccc21`, the melting point was 122 to 124 °C. `Clc1ccc(N2CCN(Cc3cn4cc(Br)ccc4n3)CC2)cc1` showed a melting point of 154 to 155 °C. `O=C1CC(c2sccc2Cl)=Nc2ccc(-c3ccc(F)cc3)cc2N1` gave a melting point of 255 to 256 °C. `Nc1ncccc1OCc1c(F)cccc1F` gave a melting point of 124 to 128 °C. `COC(=O)C[C@@H]1CCC/C1=C\Cc1c(O)c2c(c(C)c1OC)COC2=O` showed a melting point of 72 to 74 °C. `COc1ccc(CNc2cnn[nH]2)cc1OC1CCCC1` showed a melting point of 113 to 114 °C. Work on `O=c1[nH]c(=O)n(CCCBr)c2ccccc12` yielded a melting point of 159 to 170 °C. With `OCc1ccc(-c2csc(-c3cn([C@H]4CN5CCC4CC5)nn3)c2)cc1` the melting point was 196 °C. With `CC(=O)C(=Cc1ccc(O)c(O)c1)C(C)=O` the melting point was 134 to 137 °C. In the case of `CC(C)(C)CC(=O)Nc1cc(NC(=O)C(C)(C)C)cc(NC(=O)C(C)(C)C)c1`, the melting point is reported as 368 °C. Compound `CC1=C(O)C(=O)C(C)(C(O)Cc2ccccc2)O1` (centres undefined) has a melting point of 158 to 159 °C. `CCCCNC(=O)NS(=O)(=O)c1ccc(N2CCC(NC[C@H](O)c3ccc(O)c(NS(C)(=O)=O)c3)CC2)cc1` gave a melting point of 100 to 102 °C. Compound `CCC(COc1ccccc1COc1cccc2ccc(=O)[nH]c12)OC(C)=O` (centres undefined) has a melting point of 112 to 114 °C. `CCNc1nc(C)c(C(=O)c2ccc(Cl)c([N+](=O)[O-])c2)s1` gave a melting point of 195 °C. In the case of `Cc1ccc(-c2c(-c3ccncc3)nc(-c3c(Cl)cccc3Cl)n2C)cc1`, the melting point is reported as 214 to 217 °C. `CSCn1c(Br)c(Br)c(C#N)c1-c1ccc(C(F)(F)F)cc1` gave a melting point of 140 to 145 °C. Compound `N#Cc1cnc2c(oc3ccccc32)c1Nc1ccc(Cl)cc1F` has a melting point of 259 to 261 °C. `CCOC(=O)c1ccc(N2CCC(NCC(O)COc3ccc(N=Nc4ccc([N+](=O)[O-])cc4)nc3)CC2)nc1` (centres undefined) gave a melting point of 172 °C. With `COc1ccnc(CSc2nc3cscc3n2COC(C)=O)c1` the melting point was 111 to 113 °C. In the case of `CCOC(=O)c1cc(-c2ccc(C)cc2)n(-c2ccc(S(N)(=O)=O)cc2)n1`, the melting point is reported as 220 to 222 °C. `COc1cccc(-c2cc3ccc(C#N)cc3o2)c1` showed a melting point of 148 to 150 °C. `N#Cc1cccc(-n2ccc3cc(Cl)ccc32)c1` showed a melting point of 120 to 122 °C. With `Cc1cccc(Oc2cccc(NC(=O)c3ccn4c3CSC4c3cccnc3)c2)c1` (centres undefined) the melting point was 149 °C. In the case of `Cc1ccc([N+](=O)[O-])c2[nH]cc(CO)c(=O)c12`, the melting point is reported as 251 to 255 °C. For `CC1(C)CC(=O)C(C(=O)Nc2cccc(Cl)c2)C(=O)C1`, the melting point was 89 to 91 °C. With `CCOC(=O)c1c(C(F)(F)F)nn(-c2c(Cl)cc(Cl)cc2Cl)c1C` the melting point was 95 to 96 °C. For `CCCCN(CC)c1nc(C)nc2c1NC(=S)CN2c1ccc(C(C)C)cc1Br`, the melting point was 148 to 149 °C. Compound `Cc1nc(N2CCN(Cc3ccc(F)cc3)C2=O)sc1C(=O)NCc1cnn(C)c1` has a melting point of 173 to 175 °C. `N#Cc1c(Cl)nc(Cl)nc1N1CCSCC1` showed a melting point of 180 °C. With `Cc1ccc(-n2nc(C(C)(C)C)cc2NC(=O)Nc2ccc(OCCN3CCOCC3)c3ccccc23)cc1` the melting point was 142 to 143 °C. In the case of `Cc1ccc(C(=O)Nc2ccc(C#N)cc2)cc1Nc1ncc(-c2cccnc2)o1`, the melting point is reported as 203 °C. With `CC1(C)CC(OC(=O)c2ccccc2)CC(C)(C)N1OP(=O)(c1ccccc1)c1ccccc1` the melting point was 169 to 173 °C. Work on `COc1cc2cc3c(=O)[nH]cnc3cc2cc1OCCN1CCOCC1` yielded a melting point of 230 to 232 °C. For `Cn1c(=S)c(C(=O)C2=C(O)CCCC2=O)nc2ccccc21`, the melting point was > 300 °C. With `C[C@H](C(O)C(c1ccc(F)cc1F)n1cncn1)S(=O)(=O)[C@@H]1CNCCN1c1ccccc1` (some centres undefined) the melting point was 135 to 137 °C. In the case of `O=C([C@@H]1O[C@H]1c1ccccc1)N(CC1CC1)[C@@H]1CCCC[C@H]1O`, the melting point is reported as 110 to 120 °C. With `CCCN(CCC)c1nsc(N)c1C#N` the melting point was 136 to 138 °C. `NC(=O)c1nccn1C1Sc2ccccc2C1=O` (centres undefined) showed a melting point of 180 °C.

Reference: a melting point compilation (Tetko et al.; mined from patent text by program, amines drawn as free bases though some values may be those of a salt)
